For data set [1], the target named is JAK1_C817 (Homo sapiens, UniProt P23458). As to the kind of experiment: Targeted MS-ABPP target engagement (TE50) in human cell lysates. It is filed as binding.
In data set [2] the target is TYK2_C838 (Homo sapiens, UniProt P29597). The data set is described as above. It is filed as binding. Particulars: read-out: target engagement value (TE50), TYK2_C838, 1 h, in vitro.
The subject of data set [3] is IFNα-stimulated STAT1 phosphorylation. As to the kind of experiment: HTRF phospho-STAT1 assay in human PBMCs. Particulars: compound 2 h, IFNα 100 ng/mL 30 min. It is filed as cell-based.
In data set [4] the test system is JAK1 (C817). Particulars: human T cells in situ, 50 µM, 1 h; cited from earlier work.
The test system of data set [5] is TYK2 (C838). Particulars: human T cells in situ, 50 µM, 1 h; cited from earlier work.
Data set [6] relates to recombinant JAK1 (WT, C810A, C817A). Kind of data set: Gel-based ABPP in 22Rv1 cells. It is filed as binding, human. Particulars: 0.1 μM, 2 h, in situ.
In data set [7] the target is recombinant TYK2 (WT, C838A) (Homo sapiens, UniProt P29597). Kind of data set: Gel-based ABPP in 22Rv1 cells. It is filed as binding. Particulars: 0.1 μM, 2 h, in situ.
recombinant TYK2 (WT, C838A) (Homo sapiens, UniProt P29597), sequence (P29597 whole entry C838A): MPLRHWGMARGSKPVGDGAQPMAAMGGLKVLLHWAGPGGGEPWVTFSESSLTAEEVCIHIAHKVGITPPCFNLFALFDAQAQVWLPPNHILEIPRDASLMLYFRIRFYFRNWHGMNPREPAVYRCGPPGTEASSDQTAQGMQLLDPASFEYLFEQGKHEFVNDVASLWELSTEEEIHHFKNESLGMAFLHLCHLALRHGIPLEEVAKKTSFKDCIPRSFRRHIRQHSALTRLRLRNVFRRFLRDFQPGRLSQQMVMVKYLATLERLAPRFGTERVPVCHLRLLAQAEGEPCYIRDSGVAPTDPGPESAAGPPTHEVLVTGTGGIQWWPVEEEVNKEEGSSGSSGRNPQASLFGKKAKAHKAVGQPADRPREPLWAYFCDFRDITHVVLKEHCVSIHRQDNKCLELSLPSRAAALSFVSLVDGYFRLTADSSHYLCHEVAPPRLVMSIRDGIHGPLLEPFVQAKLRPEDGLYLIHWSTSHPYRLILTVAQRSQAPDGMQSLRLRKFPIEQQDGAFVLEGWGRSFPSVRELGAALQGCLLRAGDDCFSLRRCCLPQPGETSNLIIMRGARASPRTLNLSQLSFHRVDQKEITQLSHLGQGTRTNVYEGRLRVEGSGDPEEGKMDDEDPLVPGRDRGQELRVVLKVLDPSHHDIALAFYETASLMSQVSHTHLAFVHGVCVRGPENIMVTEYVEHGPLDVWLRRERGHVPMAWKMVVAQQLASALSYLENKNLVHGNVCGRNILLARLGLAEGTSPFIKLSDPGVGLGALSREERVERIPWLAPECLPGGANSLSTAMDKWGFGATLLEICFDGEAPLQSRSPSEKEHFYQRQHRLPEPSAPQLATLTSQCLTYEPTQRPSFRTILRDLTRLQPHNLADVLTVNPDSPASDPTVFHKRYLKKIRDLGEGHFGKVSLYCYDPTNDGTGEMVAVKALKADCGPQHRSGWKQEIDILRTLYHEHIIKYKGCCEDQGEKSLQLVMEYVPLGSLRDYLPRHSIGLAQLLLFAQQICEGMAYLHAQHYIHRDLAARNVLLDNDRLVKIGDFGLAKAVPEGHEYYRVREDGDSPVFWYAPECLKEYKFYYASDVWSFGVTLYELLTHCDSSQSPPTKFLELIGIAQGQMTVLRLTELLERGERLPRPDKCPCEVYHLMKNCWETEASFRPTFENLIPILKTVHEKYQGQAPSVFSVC
Data set [8] deals with recombinant TYK2 (WT, C838A) (Homo sapiens, UniProt P29597, C838A). As to the kind of experiment: Gel-based ABPP in 22Rv1 cells. It is filed as binding. Particulars: 0.1 μM, 2 h, in situ.
recombinant TYK2 (WT, C838A) (Homo sapiens, UniProt P29597, C838A), sequence (P29597 whole entry C838A): as above
Data set [9] deals with IFNα-stimulated STAT1 phosphorylation. As to the kind of experiment: Phospho-STAT western blot in human PBMCs. Particulars: compound 2 h, IFNα 100 ng/mL 30 min. It is filed as cell-based. Background: In western blotting, separated proteins are transferred to a membrane and probed.
For data set [10], the system named is IL-6-stimulated STAT3 phosphorylation. Kind of data set: Phospho-STAT western blot in human PBMCs. It is filed as cell-based. Particulars: compound 2 h, IL-6 25 ng/mL 30 min.
Data set [11] has as its system IL-2-stimulated STAT5 phosphorylation. As to the kind of experiment: Phospho-STAT western blot in human PBMCs. It is filed as cell-based. Particulars: compound 2 h, IL-2 20 U/mL 15 min.
For data set [12], the system named is GM-CSF stimulated STAT5 phosphorylation (JAK2-dependent). Kind of data set: Phospho-STAT western blot in human PBMCs. It is filed as cell-based. Particulars: compound 2 h, GM-CSF 15 min.
In data set [13] the test system is IL-12-STAT4 signaling (TYK2/JAK2-dependent). Kind of data set: Phospho-STAT western blot in human PBMC-derived T-blasts. Particulars: compound 2 h, IL-12 12.5 ng/mL 15 min. It is filed as cell-based.
Data set [14] deals with IFNα-dependent STAT1 phosphorylation. Kind of data set: Phospho-STAT western blot in mouse splenocytes. It is filed as cell-based. Particulars: 0.01–0.1 µM.
Data set [15] relates to IL-2-dependent STAT5 phosphorylation. As to the kind of experiment: Phospho-STAT western blot in mouse splenocytes. It is filed as cell-based. Particulars: 0.01–0.1 µM.
Data set [16] concerns GM-CSF-STAT5 signaling. As to the kind of experiment: Phospho-STAT western blot in mouse splenocytes. It is filed as cell-based.
The subject of data set [17] is IL-12-STAT4 signaling. As to the kind of experiment: Phospho-STAT western blot in mouse splenocytes. It is filed as cell-based.
Data set [18] can be described thus: In vivo pharmacokinetic analysis. Particulars: male, CD-1 (ICR), mouse, plasma.
In data set [19] the target is JAK1_C816 (Mus musculus, UniProt P52332). Kind of data set: In vivo target engagement in spleen by targeted MS-ABPP. Particulars: mice, s.c. 25 or 50 mg/kg, two doses over an 8 h period.
JAK1_C816, sequence (P52332 whole entry): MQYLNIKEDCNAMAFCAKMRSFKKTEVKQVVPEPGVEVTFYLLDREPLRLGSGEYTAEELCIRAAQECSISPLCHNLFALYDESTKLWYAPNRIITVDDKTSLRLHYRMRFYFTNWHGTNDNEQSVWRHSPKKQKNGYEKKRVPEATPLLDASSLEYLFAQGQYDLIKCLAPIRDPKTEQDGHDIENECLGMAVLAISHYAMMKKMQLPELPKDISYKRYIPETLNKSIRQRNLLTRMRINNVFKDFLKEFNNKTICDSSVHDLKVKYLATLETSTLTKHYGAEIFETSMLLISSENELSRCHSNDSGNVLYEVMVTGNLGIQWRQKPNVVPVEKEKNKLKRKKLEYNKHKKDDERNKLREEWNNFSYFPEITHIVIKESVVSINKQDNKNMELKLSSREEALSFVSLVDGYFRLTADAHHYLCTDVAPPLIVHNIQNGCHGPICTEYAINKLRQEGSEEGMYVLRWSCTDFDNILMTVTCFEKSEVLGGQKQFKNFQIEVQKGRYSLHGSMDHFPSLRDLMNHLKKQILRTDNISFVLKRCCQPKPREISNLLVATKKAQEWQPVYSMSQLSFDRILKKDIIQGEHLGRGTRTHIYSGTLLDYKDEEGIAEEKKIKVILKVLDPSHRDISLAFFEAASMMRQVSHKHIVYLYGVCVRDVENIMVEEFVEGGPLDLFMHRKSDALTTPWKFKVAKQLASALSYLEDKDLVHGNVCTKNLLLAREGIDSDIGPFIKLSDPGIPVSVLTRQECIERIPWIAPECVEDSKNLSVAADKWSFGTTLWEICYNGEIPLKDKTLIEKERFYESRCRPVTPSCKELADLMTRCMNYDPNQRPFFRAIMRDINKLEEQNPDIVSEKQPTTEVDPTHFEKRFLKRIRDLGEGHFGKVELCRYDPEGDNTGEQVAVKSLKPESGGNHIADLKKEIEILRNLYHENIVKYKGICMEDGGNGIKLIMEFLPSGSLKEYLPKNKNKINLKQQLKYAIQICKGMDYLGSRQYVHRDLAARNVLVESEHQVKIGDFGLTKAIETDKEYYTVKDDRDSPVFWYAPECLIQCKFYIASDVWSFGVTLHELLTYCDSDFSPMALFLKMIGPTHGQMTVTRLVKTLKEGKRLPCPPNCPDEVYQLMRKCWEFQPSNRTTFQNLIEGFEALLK
Data set [20] deals with IFNα-stimulated STAT1 phosphorylation. As to the kind of experiment: Ex vivo phospho-STAT assay, splenocytes of treated mice. It is filed as in vivo, mouse. Particulars: splenocytes of mice given 25 mg/kg s.c., 2 × 4 h.
Data set [21] has as its system IL-2-dependent STAT5 phosphorylation. The description is as above. It is filed as in vivo, mouse. Particulars: splenocytes of mice given 25 mg/kg s.c., 2 × 4 h.
In data set [22] the test system is IL-6-STAT3 signaling. The description is as above. It is filed as in vivo, mouse. Particulars: splenocytes of mice given 25 mg/kg s.c., 2 × 4 h.
The subject of data set [23] is GM-CSF-STAT5 signaling. The data set is described as above. It is filed as in vivo, mouse. Particulars: splenocytes of mice given 25 mg/kg s.c., 2 × 4 h.
Data set [24] relates to IFNα-stimulated STAT1 phosphorylation. As to the kind of experiment: Phospho-STAT western blot in 22Rv1 cells expressing JAK1 variants. Particulars: cells expressing WT-, C810A-, or C817A-JAK1; 2 µM, 2 h. It is filed as cell-based, human.
The test system of data set [25] is IL-6-stimulated STAT3 phosphorylation. As to the kind of experiment: Phospho-STAT western blot in mouse splenocytes. It is filed as cell-based. Particulars: WT mouse splenocytes.
The test system of data set [26] is IFNγ-stimulated STAT1 phosphorylation. As to the kind of experiment: Phospho-STAT western blot in 22Rv1 cells expressing JAK1 variants. Particulars: WT-JAK1 transfected 22Rv1 cells; 1 μM, 2 h. It is filed as cell-based, human.
Data set [27] deals with αCD3/αCD28-stimulated primary human T cells (CD25, CD69). Kind of data set: T-cell activation analysis by flow cytometry. Particulars: αCD3/αCD28 co-stimulation, 24 h. It is filed as cell-based.
Data set [28] relates to primary human T cells. Kind of data set: T-cell viability (Near IR Live/Dead stain). Particulars: 24 h. It is filed as cell-based.
Data set [29] has as its target JAK1 phosphorylation (pJAK1; Y1034/Y1035) (Homo sapiens, UniProt P23458). Kind of data set: JAK1 phosphorylation western blot in 22Rv1 cells expressing JAK1 variants. It is filed as cell-based. Particulars: 22Rv1 cells transfected with WT or C817A-JAK1; independent of JAK1_C817.
The test system of data set [30] is IFNα-stimulated STAT1 phosphorylation (TYK2-dependent). As to the kind of experiment: Phospho-STAT western blot in 22Rv1 cells expressing TYK2 variants. It is filed as cell-based, human. Particulars: 2 h.
Data set [31] deals with JAK1 trans-phosphorylation (Homo sapiens, UniProt P23458). Kind of data set: Trans-phosphorylation assay in 22Rv1 cells. It is filed as cell-based. Particulars: cells expressing active WT-JAK1-FLAG; 2 µM, 2 h.
JAK1 trans-phosphorylation, sequence (P23458 whole entry): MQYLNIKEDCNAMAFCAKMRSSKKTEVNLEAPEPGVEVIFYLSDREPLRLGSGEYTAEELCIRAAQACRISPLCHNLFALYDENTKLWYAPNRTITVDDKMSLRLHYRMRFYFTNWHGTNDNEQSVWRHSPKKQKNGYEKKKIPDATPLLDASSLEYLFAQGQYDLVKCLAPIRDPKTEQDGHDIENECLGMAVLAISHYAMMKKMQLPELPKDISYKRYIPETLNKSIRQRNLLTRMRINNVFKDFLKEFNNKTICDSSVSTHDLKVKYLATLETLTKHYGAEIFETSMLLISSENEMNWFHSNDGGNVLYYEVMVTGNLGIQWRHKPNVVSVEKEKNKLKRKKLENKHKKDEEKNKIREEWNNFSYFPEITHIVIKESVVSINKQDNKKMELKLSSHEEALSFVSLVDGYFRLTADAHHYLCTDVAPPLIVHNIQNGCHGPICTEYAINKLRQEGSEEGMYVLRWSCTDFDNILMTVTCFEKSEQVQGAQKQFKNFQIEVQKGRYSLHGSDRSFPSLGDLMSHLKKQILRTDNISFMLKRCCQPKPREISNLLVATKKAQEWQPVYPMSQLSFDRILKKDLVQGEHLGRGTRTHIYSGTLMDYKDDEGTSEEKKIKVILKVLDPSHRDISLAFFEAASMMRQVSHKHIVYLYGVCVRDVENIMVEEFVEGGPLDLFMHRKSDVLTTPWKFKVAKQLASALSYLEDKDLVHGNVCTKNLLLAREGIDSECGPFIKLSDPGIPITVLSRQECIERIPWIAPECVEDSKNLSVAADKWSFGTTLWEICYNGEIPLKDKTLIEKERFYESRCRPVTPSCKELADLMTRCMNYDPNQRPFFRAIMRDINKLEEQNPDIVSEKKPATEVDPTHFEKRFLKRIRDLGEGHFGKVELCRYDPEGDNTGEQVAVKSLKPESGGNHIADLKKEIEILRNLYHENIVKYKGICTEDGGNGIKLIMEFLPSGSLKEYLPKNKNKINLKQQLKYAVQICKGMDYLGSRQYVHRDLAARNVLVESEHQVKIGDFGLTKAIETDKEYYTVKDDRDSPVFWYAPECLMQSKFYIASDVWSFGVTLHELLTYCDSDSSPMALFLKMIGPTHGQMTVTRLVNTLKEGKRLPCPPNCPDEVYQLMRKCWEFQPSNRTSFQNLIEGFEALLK

JAK1_C817, sequence (P23458 whole entry): as above
TYK2_C838, sequence (P29597 whole entry): as the sequence (P29597 whole entry C838A) above, with A838C counted along it
JAK1 phosphorylation (pJAK1; Y1034/Y1035), sequence (P23458 whole entry): as the sequence (P23458 whole entry) above

For `CC#CC(=O)N1CCCC(c2ccc(Cl)cc2)C1` (single isomer, unassigned; (-)) [(−)-1a], the IC50 in data set [1] (read-out: target engagement value (TE50), JAK1_C817, 1 h compound treatment of human PBMC or Jurkat cell proteome) is 2.1 µM; in [2], 45 µM; in data set [3] (read-out: IC50, IFNα-stimulated STAT1 phosphorylation (HTRF)) it was 1.4 µM.
In the case of `CS(=O)(=O)N1CC[C@@H](C#CC(=O)N2CCC[C@H](c3ccc(Cl)c(Cl)c3)C2)C1` [5b], the “change of TE50 with preincubation time” value in data set [1] (Jurkat T-cell lysate, 10, 30 and 60 minutes) is recorded as “time-dependent decreases”. Further, the “potency compared with the corresponding diastereomers (5c and 5d)” value in [1] (TE50 and pSTAT pIC50) is recorded as “substantially more potent”.
Regarding `COc1ccc2c(c1)CCCN2C(=O)CCl` [KB02], the “engagement of JAK1 C817” value in data set [4] is given as “substantially engaged”. The “engagement of TYK2 C838” value in data set [5] is recorded as “substantially engaged”.
On to `C=CC(=O)N(c1ccccc1)c1ccc(Br)cc1` [KB05], for which the “engagement of JAK1 C817” value in [4] was “substantially engaged”. The “engagement of TYK2 C838” value in data set [5] is “substantially engaged”.
`C#CCCS(=O)(=O)N1CCC(C#CC(=O)N2CCCC(c3ccc(Cl)c(Cl)c3)C2)C1` (stereo not drawn) [alkyne probe 6]: the “probe labeling of WT- and C810A-JAK1” value in data set [6] is given as “reacted”. Besides, in [7], the “probe labeling of WT-TYK2” value is “reacted”. Besides, in [8], the “probe labeling of C838A-TYK2” value was “but not a C838A-TYK2 mutant”.
For the molecule `CC#CC(=O)N1CCCC(c2ccc(Cl)cc2)C1` (stereo not drawn) [compound 1], the “target engagement value (TE50), JAK1_C817” value in [1] (1 h compound treatment of human PBMC or Jurkat cell proteome) was “~two-fold less active”. Moreover, the “IC50, IFNα-stimulated STAT1 phosphorylation (HTRF)” value in data set [3] is listed as “~two-fold less active”.
What is called AUC(0-t) is exposure summed from dosing to a finite time, without extrapolation to infinity. A lower AUC(0-t) goes with low exposure. The term Cmax denotes the maximum level reached in the sampled fluid or tissue. A word on the clearance: it is the rate of elimination divided by the concentration. A lower clearance goes with inefficient removal. For orientation: half-life means how long it takes for the measured level to halve. By bioavailability is commonly meant the share of a dose that reaches the circulation, judged against a reference dose that is usually intravenous. A high value points to good availability. As to `CS(=O)(=O)N1CCC(C#CC(=O)N2CCCC(c3ccc(Cl)c(Cl)c3)C2)C1` (stereo not drawn) [compound 5], the “effect on IFNα-pSTAT1” value in data set [9] is “potently inhibited”. The “effect on IL-6-pSTAT3” value in data set [10] is “potently inhibited”. Moreover, the “effect on IL-2-pSTAT5” value in [11] is reported as “potently inhibited”. Further, the “effect on GM-CSF stimulated STAT5 phosphorylation” value in data set [12] is recorded as “sparing”. Besides, the “effect on IL-12-STAT4 signaling” value in [13] was “sparing”. The “effect on IFNα-dependent STAT1 phosphorylation” value in data set [14] is given as “inhibited”. Moreover, the “effect on IL-2-dependent STAT5 phosphorylation” value in data set [15] is listed as “inhibited”. The “effect on GM-CSF-STAT5 signaling” value in data set [16] is reported as “sparing”. The “effect on IL-12-STAT4 signaling” value in [17] is “sparing”. In [18] (iv, 1 mg/kg), this molecule had an AUC(0-t) of 149 ng·h/mL, a Cmax of 1610 ng/mL, a clearance of 112 mL/min/kg and a half-life of 9.18 min. In data set [18] (sc, 25 mg/kg), the AUC(0-t) turned out to be 2930 ng·h/mL, the peak level (Cmax) was 3380 ng/mL, the bioavailability came to 78.3% and the half-life was 21.6 min. Besides, the “engagement of JAK1_C816 in spleen” value in [19] came out at 75%. Also, the “IFNα-stimulated STAT1 phosphorylation vs vehicle-treated mice” value in data set [20] is on record as “substantial impairments”. Besides, in data set [21], the “IL-2-dependent STAT5 phosphorylation vs vehicle-treated mice” value is listed as “not substantially altered”. The “IL-6-STAT3 signaling vs vehicle-treated mice” value in data set [22] was “unaffected”. For the same molecule, the “GM-CSF-STAT5 signaling vs vehicle-treated mice” value in data set [23] was “unaffected”.
In the case of `C[C@@H]1CCN(C(=O)CC#N)C[C@@H]1N(C)c1ncnc2[nH]ccc12` [tofacitinib, reference compound], the “effect on IFNα-stimulated pSTAT1” value in data set [24] was “equivalently blocked”. Further, the “effect on IFNα-pSTAT1” value in data set [9] is reported as “blocked”. Moreover, in [10], the “effect on IL-6-pSTAT3” value was “blocked”. Also, in data set [11], the “effect on IL-2-pSTAT5” value is reported as “blocked”. For the same molecule, the “effect on IL-6-stimulated STAT3 phosphorylation” value in [25] is “suppressed”. Besides, in data set [26], the “effect on IFNγ-stimulated STAT1 phosphorylation” value is given as “completely inhibited”. In addition, in data set [27], the “early-stage activation marker CD69” value is given as “Neither compound affected”. Moreover, in [28], the T-cell viability entry was “Neither compound affected”.
Turning to `CC[C@@H]1CN(C(=O)NCC(F)(F)F)C[C@@H]1c1cnc2cnc3[nH]ccc3n12` [upadacitinib, reference compound], the “effect on IL-6-stimulated STAT3 phosphorylation” value in data set [25] is given as “suppressed”. Besides, the “effect on IFNγ-stimulated STAT1 phosphorylation” value in data set [26] is recorded as “completely inhibited”.
As to “deucravacitinib [BMS-986165, reference compound]”, in data set [29], the “effect on JAK1 phosphorylation” value is “suppressed”. Besides, the “effect on IFNα-induced STAT1 phosphorylation” value in data set [30] (C838A-TYK2 expressing 22Rv1 cells) and in [30] (WT-TYK2 expressing 22Rv1 cells) was “blocked” each time. The “effect on GM-CSF stimulated STAT5 phosphorylation” value in data set [12] is “inactive”. Moreover, the “effect on IL-12-STAT4 signaling” value in [13] is recorded as “inhibited”. In data set [25], the “effect on IL-6-stimulated STAT3 phosphorylation” value was “suppressed”. For the same molecule, the “effect on trans-phosphorylation of inactive JAK1-HA variants” value in data set [31] was “blocked JAK1 trans-phosphorylation in a C817-independent manner”. The “effect on IFNγ-stimulated STAT1 phosphorylation” value in data set [26] was “Neither VVD-118313 nor the TYK2 inhibitor BMS-986165 altered”.

Values taken from publication PMC7614775 (Nature chemical biology, 2022).
